According to US20160159816A1, “SUBSTITUTED THIENOPYRIMIDINES AND PHARMACEUTICAL USE THEREOF” (BAYER PHARMA AKTIENGESELLSCHAFT, priority 2013, published 2016):

target: T1, human full-length MKNK1 (Homo sapiens, UniProt Q9BUB5, T385D); assay: MKNK1 kinase high ATP assay (TR-FRET); format: biochemical; details: high ATP (2 mM), after preincubation with MKNK1; compounds of the present invention (Table 1a)
T1 construct: GST (N); purchased Carna Biosciences 02-145; host or cells: insect cells, baculovirus expression system
T1 sequence (Q9BUB5 1-424 isoform Q9BUB5-2 T344D): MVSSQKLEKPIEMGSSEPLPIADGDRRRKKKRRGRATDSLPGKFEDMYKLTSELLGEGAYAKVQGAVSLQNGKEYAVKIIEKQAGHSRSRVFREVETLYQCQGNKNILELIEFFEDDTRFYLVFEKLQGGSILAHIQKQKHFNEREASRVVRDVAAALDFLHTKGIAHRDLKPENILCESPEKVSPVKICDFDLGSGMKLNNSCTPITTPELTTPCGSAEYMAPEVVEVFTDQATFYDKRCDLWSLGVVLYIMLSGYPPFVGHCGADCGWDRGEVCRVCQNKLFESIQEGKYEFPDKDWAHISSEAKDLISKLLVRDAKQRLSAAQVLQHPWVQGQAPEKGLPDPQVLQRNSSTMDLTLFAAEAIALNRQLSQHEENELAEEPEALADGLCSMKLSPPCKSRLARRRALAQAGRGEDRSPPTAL
Procedure: MKNK1-inhibitory activity at high ATP of compounds of the present invention after their preincubation with MKNK1 was quantified employing the TR-FRET-based MKNK1 high ATP assay as described in the following paragraphs.
A recombinant fusion protein of Glutathione-S-Transferase (GST, N-terminally) and human full-length MKNK1 (amino acids 1-424 and T344D of accession number BAA 19885.1), expressed in insect cells using baculovirus expression system and purified via glutathione sepharose affinity chromatography, was purchased from Carna Biosciences (product no 02-145) and used as enzyme. As substrate for the kinase reaction the biotinylated peptide biotin-Ahx-IKKRKLTRRKSLKG (C-terminus in amide form) was used, which can be purchased e.g. from the company Biosyntan (Berlin-Buch, Germany).
For the assay 50 nL of a 100 fold concentrated solution of the test compound in DMSO was pipetted into a black low volume 384 well microtiter plate (Greiner Bio-One, Frickenhausen, Germany), 2 μL of a solution of MKNK1 in aqueous assay buffer [50 mM HEPES pH 7.5, 5 mM MgCl2, 1.0 mM dithiothreitol, 0.005% (v/v) Nonidet-P40 (Sigma)] was added and the mixture was incubated for 15 min at 22° C. to allow pre-binding of the test compounds to the enzyme before the start of the kinase reaction. Then the kinase reaction was started by the addition of 3 μL of a solution of adenosine-tri-phosphate (ATP, 3.3 mM=>final conc. in the 5 μL assay volume is 2 mM) and substrate (0.1 μM=>final conc. in the 5 μL assay volume is 0.06 μM) in assay buffer and the resulting mixture was incubated for a reaction time of 30 min at 22° C. The concentration of MKNK1 was adjusted depending of the activity of the enzyme lot and was chosen appropriate to have the assay in the linear range, typical concentrations were in the range of 0.003 μg/mL. The reaction was stopped by the addition of 5 μL of a solution of TR-FRET detection reagents (5 nM streptavidine-XL665 [Cisbio Bioassays, Codolet, France] and 1 nM anti-ribosomal protein […] (pSer236)-antibody from Invitrogen [#44921G] and 1 nM LANCE EU-W1024 labeled ProteinG [Perkin-Elmer, product no. AD0071]) in an aqueous EDTA-solution (100 mM EDTA, 0.1% (w/v) bovine serum albumin in 50 mM HEPES pH 7.5).
The resulting mixture was incubated for 1 h at 22° C. to allow the formation of complex between the phosphorylated biotinylated peptide and the detection reagents. Subsequently the amount of phosphorylated substrate was evaluated by measurement of the resonance energy transfer from the Eu-chelate to the streptavidine-XL. Therefore, the fluorescence emissions at 620 nm and 665 nm after excitation at 350 nm were measured in a TR-FRET reader, e.g. a Rubystar (BMG Labtechnologies, Offenburg, Germany) or a Viewlux (Perkin-Elmer). The ratio of the emissions at 665 nm and at […] was taken as the measure for the amount of phosphorylated substrate. The data were normalised (enzyme reaction without inhibitor=0% inhibition, all other assay components but no enzyme=100% inhibition). […] Table 1a lists MKNK1 high ATP IC50 values of some compounds of the present invention.

First: O=C(NCC1CCc2c(sc3ncnc(Nc4ccc5[nH]ncc5c4)c23)C1)[C@@H](O)Cc1ccccc1 (mixture of isomers) [Example 14, (2R)-2-Hydroxy-N-{[(7RS)-4-(1H-indazol-5-ylamino)-5,6,7,8-tetrahydro[1]benzothieno[2,3-d]pyrimidin-7-yl]methyl}-3-phenylpropanamide]
Second: COc1cc2[nH]ncc2cc1Nc1ncnc2sc3c(c12)CCC(CNC(=O)[C@@H](O)Cc1ccccc1)C3 (mixture of isomers) [Example 23, (2R)-2-Hydroxy-N-({(7RS)-4-[(6-methoxy-1H-indazol-5-yl)amino]-5,6,7,8-tetrahydro[1]benzothieno[2,3-d]pyrimidin-7-yl}methyl)-3-phenylpropanamide]
The IC50 of the first is 3.4-fold higher: 17 nM for the first, 5 nM for the second. The second is the more potent here.

`N[C@@H](CCO)C(=O)NCC1CCc2c(sc3ncnc(Nc4ccc5[nH]ncc5c4)c23)C1` (mixture of isomers) [Example 16, N-{[(7RS)-4-(1H-Indazol-5-ylamino)-5,6,7,8-tetrahydro[1]benzothieno[2,3-d]pyrimidin-7-yl]methyl}-L-homoserinamide] and `CC(O)C(=O)NCC1CCc2c(sc3ncnc(Nc4ccc5[nH]ncc5c4)c23)C1` (racemic) [Example 12, (2RS)-2-Hydroxy-N-{[(7RS)-4-(1H-indazol-5-ylamino)-5,6,7,8-tetrahydro[1]benzothieno[2,3-d]pyrimidin-7-yl]methyl}propanamide] are within 1.5-fold of each other in IC50: 20.8 nM for the first, 19.6 nM for the second.

Compared with `OCC1CCc2c(sc3ncnc(Nc4ccc5[nH]ncc5c4)c23)C1` (racemic) [Example 1, (RS)-[4-(1H-Indazol-5-ylamino)-5,6,7,8-tetrahydro[1]benzothieno[2,3-d]pyrimidin-7-yl]methanol], `NCC1CCc2c(sc3ncnc(Nc4ccc5[nH]ncc5c4)c23)C1` (racemic) [Example 7, (RS)-7-(Aminomethyl)-N-(1H-indazol-5-yl)-5,6,7,8-tetrahydro[1]benzothieno[2,3-d]pyrimidin-4-amine] is 4.9-fold higher in IC50: 31.7 nM for the first, 155 nM for the second. The first is the more potent here.

Compared with `CC(C)(O)C1CCc2c(sc3ncnc(Nc4ccc5[nH]ncc5c4)c23)C1` (racemic) [Example 4, (RS)-2-[4-(1H-Indazol-5-ylamino)-5,6,7,8-tetrahydro[1]benzothieno[2,3-d]pyrimidin-7-yl]propan-2-ol], `CC(C)(O)C(=O)NCC1CCc2c(sc3ncnc(Nc4ccc5[nH]ncc5c4)c23)C1` (racemic) [Example 13, (RS)-2-Hydroxy-N-{[4-(1H-indazol-5-ylamino)-5,6,7,8-tetrahydro[1]benzothieno[2,3-d]pyrimidin-7-yl]methyl}-2-methylpropanamide] is 3.2-fold lower in IC50: 39.1 nM for the first, 12.4 nM for the second. The second is the more potent here.

Going from `O=P(OCC1CCc2c(sc3ncnc(Nc4ccc5[nH]ncc5c4)c23)C1)(Oc1ccccc1)Oc1ccccc1` (racemic) [Example 5, (RS)-[4-(1H-Indazol-5-ylamino)-5,6,7,8-tetrahydro[1]benzothieno[2,3-d]pyrimidin-7-yl]methyl diphenyl phosphate] to `[N-]=[N+]=NCC1CCc2c(sc3ncnc(Nc4ccc5[nH]ncc5c4)c23)C1` (racemic) [Example 6, (RS)-7-(Azidomethyl)-N-(1H-indazol-5-yl)-5,6,7,8-tetrahydro[1]benzothieno[2,3-d]pyrimidin-4-amine], the IC50 falls from 205 nM to 124 nM (1.7-fold). The second is the more potent here.

First: CC(C)NC(=O)NCC1CCc2c(sc3ncnc(Nc4ccc5[nH]ncc5c4)c23)C1 (racemic) [Example 8, (RS)-1-{[4-(1H-Indazol-5-ylamino)-5,6,7,8-tetrahydro[1]benzothieno[2,3-d]pyrimidin-7-yl]methyl}-3-propan-2-ylurea]
Second: CC(C)C(=O)NCC1CCc2c(sc3ncnc(Nc4ccc5[nH]ncc5c4)c23)C1 (racemic) [Example 10, (RS)—N-{[4-(1H-Indazol-5-ylamino)-5,6,7,8-tetrahydro[1]benzothieno[2,3-d]pyrimidin-7-yl]methyl}-2-methylpropanamide]
The IC50 of the first is 3.1-fold higher: 34.4 nM for the first, 11 nM for the second.

Compared with `CC(C)OC(=O)NCC1CCc2c(sc3ncnc(Nc4ccc5[nH]ncc5c4)c23)C1` (racemic) [Example 9, (RS)-Propan-2-yl {[4-(1H-indazol-5-ylamino)-5,6,7,8-tetrahydro[1]benzothieno[2,3-d]pyrimidin-7-yl]methyl}carbamate], `CC(C)S(=O)(=O)NCC1CCc2c(sc3ncnc(Nc4ccc5[nH]ncc5c4)c23)C1` (racemic) [Example 11, (RS)—N-{[4-(1H-Indazol-5-ylamino)-5,6,7,8-tetrahydro[1]benzothieno[2,3-d]pyrimidin-7-yl]methyl}propane-2-sulfonamide] is 1.8-fold lower in IC50: 30.2 nM for the first, 16.4 nM for the second.

Going from `COc1cc2[nH]ncc2cc1Nc1ncnc2sc3c(c12)CCC(CO)C3` (racemic) [Example 17, (RS)-{4-[(6-Methoxy-1H-indazol-5-yl)amino]-5,6,7,8-tetrahydro[1]benzothieno[2,3-d]pyrimidin-7-yl}methanol] to `COc1cc2[nH]ncc2cc1Nc1ncnc2sc3c(c12)CCC(CN)C3` (racemic) [Example 19, (RS)-7-(aminomethyl)-N-(6-methoxy-1H-indazol-5-yl)-5,6,7,8-tetrahydro[1]benzothieno[2,3-d]pyrimidin-4-amine], the IC50 rises from 3.2 nM to 6.2 nM (1.9-fold). The first is the more potent here.

Compared with `COc1cc2[nH]ncc2cc1Nc1ncnc2sc3c(c12)CCC(CN=[N+]=[N-])C3` (racemic) [Example 18, (RS)-7-(Azidomethyl)-N-(6-methoxy-1H-indazol-5-yl)-5,6,7,8-tetrahydro[1]benzothieno[2,3-d]pyrimidin-4-amine], `COc1cc2[nH]ncc2cc1Nc1ncnc2sc3c(c12)CCC(C)C3` (racemic) [Example 27, (RS)—N-(6-Methoxy-1H-indazol-5-yl)-7-methyl-5,6,7,8-tetrahydro[1]benzothieno[2,3-d]pyrimidin-4-amine] is 2.8-fold higher in IC50: 23.9 nM for the first, 66.3 nM for the second.

`COc1cc2[nH]ncc2cc1Nc1ncnc2sc3c(c12)CCC(CNC(=O)NC(C)C)C3` (racemic) [Example 20, (RS)-1-({4-[(6-Methoxy-1H-indazol-5-yl)amino]-5,6,7,8-tetrahydro[1]benzothieno[2,3-d]pyrimidin-7-yl}methyl)-3-propan-2-ylurea] and `COc1cc2[nH]ncc2cc1Nc1ncnc2sc3c(c12)CCC(CNC(=O)C(C)C)C3` (racemic) [Example 21, (RS)—N-({4-[(6-Methoxy-1H-indazol-5-yl)amino]-5,6,7,8-tetrahydro[1]benzothieno[2,3-d]pyrimidin-7-yl}methyl)-2-methylpropanamide] are within 1.5-fold of each other in IC50: 3.1 nM for the first, 2.1 nM for the second.

Going from `COc1cc2[nH]ncc2cc1Nc1ncnc2sc3c(c12)CCC(CNC(=O)C(C)(C)O)C3` (racemic) [Example 22, (RS)-2-Hydroxy-N-({4-[(6-methoxy-1H-indazol-5-yl)amino]-5,6,7,8-tetrahydro[1]benzothieno[2,3-d]pyrimidin-7-yl}methyl)-2-methylpropanamide] to `Cc1cc2[nH]ncc2cc1Nc1ncnc2sc3c(c12)CCC(C)C3` (racemic) [Example 25, (RS)-7-Methyl-N-(6-methyl-1H-indazol-5-yl)-5,6,7,8-tetrahydro[1]benzothieno[2,3-d]pyrimidin-4-amine], the IC50 rises from 4 nM to 124 nM (31-fold). The first is the more potent here.

Going from `CC1CCc2c(sc3ncnc(Nc4cc5cn[nH]c5cc4Cl)c23)C1` (racemic) [Example 26, (RS)—N-(6-Chloro-1H-indazol-5-yl)-7-methyl-5,6,7,8-tetrahydro[1]benzothieno[2,3-d]pyrimidin-4-amine] to `CC1CCc2c(sc3ncnc(Nc4cc5cn[nH]c5cc4F)c23)C1` (racemic) [Example 28, (RS)—N-(6-Fluoro-1H-indazol-5-yl)-7-methyl-5,6,7,8-tetrahydro[1]benzothieno[2,3-d]pyrimidin-4-amine], the IC50 falls from 327 nM to 67.1 nM (4.9-fold).

`COCC1(OC)CCc2c(sc3ncnc(Nc4cc5cn[nH]c5cc4C)c23)C1` (racemic) [Example 29, (RS)-7-methoxy-7-(methoxymethyl)-N-(6-methyl-1H-indazol-5-yl)-5,6,7,8-tetrahydro[1]benzothieno[2,3-d]pyrimidin-4-amine] was tested, and the IC50 was 984 nM.
